Experimental data reported in patent US20170273922A1, “UREA AND BIS-UREA BASED COMPOUNDS AND ANALOGUES THEREOF USEFUL IN THE TREATMENT OF ANDROGEN RECEPTOR MEDIATED DISEASES OR DISORDERS” (THE ROYAL INSTITUTION FOR THE ADVACEMENT OF LEARNING/MCGILL …, priority 2014, published 2017).

Legend:
Type in all cases: cell-based
LNCaP cells = experiment: MTT assay (cytotoxicity), LNCaP cells; details: 72 h, Table 2.2
Experimental: (§1) MTT assays: LNCaP, 22Rv1, Du145, H1975, A549, MB231 and MCF-7 cells are maintained in RPMI 1640 supplemented with 10% FBS. Cells were seeded at a density of 6-7×10^3 cells per well in 96-well plates. After overnight incubation, cells in fresh RPMI 1640 supplemented with 10% FBS were exposed to DMSO vehicle control or test compounds at designated concentrations for 72 h. Viable cells were evaluated by MTT assays. Experiments were performed in triplicate and repeated at least twice.

22Rv1 cells = experiment: MTT assay (cytotoxicity), 22Rv1 cells; details: 72 h, Table 2.2
Experimental: as §1

DU145 cells = experiment: MTT assay (cytotoxicity), DU145 cells; details: 72 h, Table 2.2
Experimental: as §1

[1] = MTT assay (cytotoxicity), LNCaP cells; details: human, LNCaP cells, 72 h
Experimental: as §1

[2] = MTT assay (cytotoxicity), DU145 cells; details: human, DU145 cells
Experimental: as §1

[3] = MTT assay (cytotoxicity), 22Rv1 cells; details: human, 22Rv1 cells, 72 h
Experimental: as §1

Row | SMILES | IC50 (LNCaP cells) | IC50 (22Rv1 cells) | IC50 (DU145 cells) | also measured
1 | O=C(N/C=C/c1cccc(F)c1)Nc1ccc([N+](=O)[O-])c(C(F)(F)F)c1 [Compound 412] | 18.8 µM | > 20 µM |  | 
2 | O=C(N/C=C/c1cccc(F)c1)Nc1cccc(C(F)(F)F)c1 [Compound 414] | 3.8 µM | 8.2 µM | 7.8 µM | 
3 | O=C(N/C=C/c1ccccc1)Nc1cccc(C(F)(F)F)c1 [Compound 415] | 6.6 µM | 11 µM | 14 µM | 
4 | N#Cc1ccc(NC(=O)N/C=C/c2cccc(C(F)(F)F)c2)cc1 [Compound 416] | 1.6 µM | 3.6 µM | 2.6 µM | 
5 | COc1cccc(NC(=O)N/C=C/c2cccc(C(F)(F)F)c2)c1 [Compound 417] | 14.6 µM | 10.8 µM | 12.2 µM | 
6 | O=C(N/C=C/c1cccc(C(F)(F)F)c1)Nc1ccc2c(c1)OCO2 [Compound 418] |  |  |  | IC50 at 72 h ([1]; Table 2.3): > 20 µM; IC50 at 72 h ([2]; Table 2.3): > 20 µM; IC50 at 72 h ([3]; Table 2.3): > 20 µM
7 | O=C(N/C=C/c1cccs1)Nc1ccc([N+](=O)[O-])c(C(F)(F)F)c1 [Compound 419] |  |  |  | IC50 at 72 h ([1]; Table 2.4): 3.2 µM; IC50 at 72 h ([2]; Table 2.4): 6.9 µM; IC50 at 72 h ([3]; Table 2.4): 4.1 µM
8 | O=C(N/C=C/c1cccs1)Nc1cccc(C(F)(F)F)c1 [Compound 420] |  |  |  | IC50 at 72 h ([1]; Table 2.4): 6.4 µM; IC50 at 72 h ([2]; Table 2.4): 12.3 µM; IC50 at 72 h ([3]; Table 2.4): 12.3 µM
9 | N#Cc1ccc(NC(=O)N/C=C/c2ccc(C(F)(F)F)cc2)cc1C(F)(F)F [Compound 421] | 1.4 µM | 7.2 µM | 3.4 µM | 
10 | N#Cc1ccc(NC(=O)N/C=C/c2cccs2)cc1 [Compound 424] |  |  |  | IC50 at 72 h ([1]; Table 2.4): 5 µM; IC50 at 72 h ([2]; Table 2.4): 14.4 µM; IC50 at 72 h ([3]; Table 2.4): 16.7 µM
11 | O=C(N/C=C/c1ccccc1C(F)(F)F)Nc1ccc2c(c1)OCO2 [Compound 427] |  |  |  | IC50 at 72 h ([1]; Table 2.3): 9.5 µM; IC50 at 72 h ([2]; Table 2.3): 19.2 µM
12 | COc1cccc(NC(=O)N/C=C/c2ccccc2C(F)(F)F)c1 [Compound 429] | 9.1 µM | 16.4 µM | 14.9 µM | 
13 | COc1cccc(/C=C/NC(=O)Nc2cccc(OC)c2)c1 [Compound 430] | > 20 µM | > 20 µM |  | 
14 | COc1cccc(/C=C/NC(=O)Nc2ccc3c(c2)OCO3)c1 [Compound 431] |  |  |  | IC50 at 72 h ([1]; Table 2.3): 17.3 µM; IC50 at 72 h ([2]; Table 2.3): > 20 µM; IC50 at 72 h ([3]; Table 2.3): > 20 µM
15 | O=C(N/C=C/c1ccc(C(F)(F)F)cc1)Nc1ccc2c(c1)OCO2 [Compound 432] |  |  |  | IC50 at 72 h ([1]; Table 2.3): > 20 µM; IC50 at 72 h ([2]; Table 2.3): > 20 µM; IC50 at 72 h ([3]; Table 2.3): > 20 µM
16 | N#Cc1ccc(NC(=O)N/C=C/c2cccc(F)c2)cc1C(F)(F)F [Compound 433] | 1.9 µM | 3.2 µM | 3.9 µM | 
17 | O=C(N/C=C/c1ccco1)Nc1ccc([N+](=O)[O-])c(C(F)(F)F)c1 [Compound 434] |  |  |  | IC50 at 72 h ([1]; Table 2.4): 2 µM; IC50 at 72 h ([2]; Table 2.4): 7.8 µM; IC50 at 72 h ([3]; Table 2.4): 5.6 µM
18 | CN(C)c1ccc(NC(=O)N/C=C/c2cccc(C(F)(F)F)c2)cc1 [Compound 435] | 13.1 µM | > 20 µM | 20 µM | 
19 | O=C(N/C=C/c1cc(C(F)(F)F)ccc1C(F)(F)F)Nc1ccc([N+](=O)[O-])c(C(F)(F)F)c1 [Compound 436] | 0.5 µM | 0.8 µM | 0.7 µM | 
20 | O=C(N/C=C/c1cccc(OC(F)(F)F)c1)Nc1ccc([N+](=O)[O-])c(C(F)(F)F)c1 [Compound 437] | 1.6 µM | 2.7 µM | 3 µM | 
21 | O=C(N/C=C/c1cc(C(F)(F)F)cc(C(F)(F)F)c1)Nc1ccc([N+](=O)[O-])c(C(F)(F)F)c1 [Compound 438] | 0.5 µM | 0.6 µM | 0.9 µM | 
22 | O=C(N/C=C/c1cccc(C(F)(F)F)c1)Nc1cccc(NC(=O)N/C=C/c2cccc(C(F)(F)F)c2)c1 [Compound 440] |  |  |  | IC50 at 72 h ([1]; Table 5.1): 1.7 µM; IC50 at 72 h ([2]; Table 5.1): 5.1 µM; IC50 at 72 h ([3]; Table 5.1): 4.9 µM
23 | COc1cc([N+](=O)[O-])ccc1NC(=O)N/C=C/c1cccc(C(F)(F)F)c1 [Compound 441] | 4.8 µM | 8.3 µM | 6.7 µM | 
24 | O=C(N/C=C/c1ccc2c(c1)OCO2)Nc1ccc([N+](=O)[O-])c(C(F)(F)F)c1 [Compound 444] |  |  |  | IC50 at 72 h ([1]; Table 2.4): 14.6 µM; IC50 at 72 h ([2]; Table 2.4): 14 µM; IC50 at 72 h ([3]; Table 2.4): 17.5 µM
25 | Cc1ccccc1NC(=O)N/C=C/c1cccc(C(F)(F)F)c1 [Compound 445] | 4.1 µM | 5.2 µM | 4.8 µM | 
26 | O=C(N/C=C/c1cccc(C(F)(F)F)c1)Nc1ccc(-n2ccnc2)cc1 [Compound 446] | 11.1 µM | 18.4 µM | > 20 µM | 
